Assay results: ChEMBL document CHEMBL5108059, “Discovery of 2-Methyl-2-(4-(2-methyl-8-(1H-pyrrolo[2,3-b]pyridin-6-yl)-1H-naphtho[1,2-d]imidazol-1-yl)phenyl)propanenitrile as a Novel PI3K/mTOR Inhibitor with Enhanced Antitumor Efficacy In Vitro and In Vivo” (J Med Chem, 2022)

Experiments:
HeLa [1] = assay: Induction of apoptosis in human HeLa cells assessed as early apoptotic cells at 1.25 uM incubated for 36 hrs by Annexin V-FITC/PI staining based flow cytometric analysis (reference value: 2.02 %); format: functional
[2] = Toxicity in BALB/c nude mouse xenografted with human HeLa cells assessed as pathological changes in lung at 60 mg/kg, IG administered daily for 30 days by hematoxylin and eosin staining based microscopic analysis; format: organism-based; conditions: in vivo, po, 720 h, time 30 day
HeLa [3] = assay: Induction of apoptosis in human HeLa cells assessed as late apoptotic cells at 2.5 uM incubated for 36 hrs by Annexin V-FITC/PI staining based flow cytometric analysis (reference value: 1.4 %); format: functional
HeLa [4] = assay: Inhibition of colony formation in human HeLa cells assessed as reduction in colony forming ability incubated for 15 days by crystal violet staining based analysis; format: functional, cell-based; conditions: dose 0.15625-1.25 µM, time 15.0 day, DDE = dose-dependent effect
[5] = Half life in Sprague-Dawley rat at 10 mg/kg, po measured for 24 hrs by LC-MS/MS analysis; format: ADME, organism-based; conditions: in vivo
[6] = molecular target: T1, Phosphatidylinositol 4,5-bisphosphate 3-kinase catalytic subunit alpha isoform (Homo sapiens, UniProt P42336); assay: Inhibition of PI3Kalpha (unknown origin) using PIP2 as substrate incubated for 1 hr in presence of ATP by Kinase Glo luminescence assay
HeLa [7] = assay: Induction of apoptosis in human HeLa cells assessed as dead cells at 1.25 uM incubated for 36 hrs by Annexin V-FITC/PI staining based flow cytometric analysis (reference value: 0.44 %); format: functional
[8] = Toxicity in BALB/c nude mouse xenografted with human SW620 cells assessed as reduction in body weight at 15 to 60 mg/kg, IG administered daily for 30 days and measured every 2 days; format: organism-based, SW-620; conditions: in vivo, po, 720 h, dose 15-60 mg/kg, time 30 day
[9] = Half life in Sprague-Dawley rat at 1 mg/kg, iv measured for 24 hrs by LC-MS/MS analysis; format: ADME, organism-based; conditions: in vivo
[10] = Toxicity in BALB/c nude mouse xenografted with human HeLa cells assessed as pathological changes in spleen at 60 mg/kg, IG administered daily for 30 days by hematoxylin and eosin staining based microscopic analysis; format: organism-based; conditions: in vivo, po, 720 h, time 30 day
HCT-15 = assay: Antiproliferative activity against human HCT-15 cells with PIK3CA mutation assessed as inhibition of cell growth incubated for 48 to 72 hrs by MTT assay; format: functional, cell-based
[11] = Tmax in Sprague-Dawley rat at 10 mg/kg, po measured for 24 hrs by LC-MS/MS analysis; format: ADME, organism-based; conditions: in vivo
[12] = Toxicity in BALB/c nude mouse xenografted with human HeLa cells assessed as reduction in body weight at 15 to 60 mg/kg, IG administered daily for 30 days and measured every 2 days; format: organism-based; conditions: in vivo, po, 720 h, dose 15-60 mg/kg, time 30 day
[13] = Toxicity in BALB/c nude mouse xenografted with human HeLa cells assessed as lethality at 15 to 60 mg/kg, IG administered daily for 30 days and measured every 2 days; format: organism-based; conditions: in vivo, po, 720 h, dose 15-60 mg/kg, time 30 day
[14] = AUC (0 to infinity) in Sprague-Dawley rat at 1 mg/kg, iv measured for 24 hrs by LC-MS/MS analysis; format: ADME, organism-based; set-up: time 24 hrs, dose 1 mg/kg, route iv; conditions: in vivo
[15] = Toxicity in BALB/c nude mouse xenografted with human SW620 cells assessed as lethality at 15 to 60 mg/kg, IG administered daily for 30 days and measured every 2 days; format: organism-based, SW-620; conditions: in vivo, po, 720 h, dose 15-60 mg/kg, time 30 day
HeLa [16] = assay: Induction of apoptosis in human HeLa cells assessed as early apoptotic cells at 0.15625 uM incubated for 36 hrs by Annexin V-FITC/PI staining based flow cytometric analysis (reference value: 2.02 %); format: functional; conditions: 0.1562 µM
[17] = molecular target: Serine/threonine-protein kinase mTOR (Homo sapiens, UniProt P42345); assay: Inhibition of N-terminal FLAG-tagged recombinant human mTOR (1362 to end residue) using ULight-4EBP1 peptide as substrate incubated for 30 mins in presence of ATP by Lance ultra assay
[18] = molecular target: T1, Phosphatidylinositol 4,5-bisphosphate 3-kinase catalytic subunit alpha isoform; assay: Inhibition of PI3Kalpha (unknown origin) using L-alpha-phosphatidylinositol as substrate incubated for 60 mins in presence of ATP by Kinase Glo luminescence assay
[19] = molecular target: Phosphatidylinositol 4,5-bisphosphate 3-kinase catalytic subunit beta isoform (Homo sapiens, UniProt P42338); assay: Inhibition of PI3Kbeta (unknown origin) using L-alpha-phosphatidylinositol as substrate incubated for 60 mins in presence of ATP by Kinase Glo luminescence assay
SW-620 [20] = assay: Inhibition of colony formation in human SW620 cells assessed as reduction in colony forming ability at 1.25 uM incubated for 15 days by crystal violet staining based analysis; format: functional; conditions: SW-620, 360 h, time 15 day
[21] = Toxicity in BALB/c nude mouse xenografted with human HeLa cells assessed as pathological changes in heart at 60 mg/kg, IG administered daily for 30 days by hematoxylin and eosin staining based microscopic analysis; format: organism-based; conditions: in vivo, po, 720 h, time 30 day
HeLa [22] = assay: Induction of apoptosis in human HeLa cells assessed as early apoptotic cells at 0.3125 uM incubated for 36 hrs by Annexin V-FITC/PI staining based flow cytometric analysis (reference value: 2.02 %); format: functional
HeLa [23] = assay: Induction of apoptosis in human HeLa cells assessed as viable cells at 0.3125 uM incubated for 36 hrs by Annexin V-FITC/PI staining based flow cytometric analysis (reference value: 96.14 %); format: functional; conditions: read-out: Activity
HeLa [24] = assay: Induction of apoptosis in human HeLa cells assessed as viable cells at 1.25 uM incubated for 36 hrs by Annexin V-FITC/PI staining based flow cytometric analysis (reference value: 96.14 %); format: functional; conditions: read-out: Activity
HeLa [25] = assay: Inhibition of colony formation in human HeLa cells assessed as reduction in colony forming ability at 0.625 uM incubated for 15 days by crystal violet staining based analysis; format: functional; conditions: 360 h, time 15 day
SW-620 [26] = assay: Induction of cell cycle arrest in human SW620 cells assessed as accumulation of cells at G0/G1 phase measured after 24 hrs by propidium iodide staining based flow cytometry analysis; format: functional; conditions: dose 0.15625-2.5 µM, DDE = dose-dependent effect

T1 sequence (P42336 whole entry, canonical isoform): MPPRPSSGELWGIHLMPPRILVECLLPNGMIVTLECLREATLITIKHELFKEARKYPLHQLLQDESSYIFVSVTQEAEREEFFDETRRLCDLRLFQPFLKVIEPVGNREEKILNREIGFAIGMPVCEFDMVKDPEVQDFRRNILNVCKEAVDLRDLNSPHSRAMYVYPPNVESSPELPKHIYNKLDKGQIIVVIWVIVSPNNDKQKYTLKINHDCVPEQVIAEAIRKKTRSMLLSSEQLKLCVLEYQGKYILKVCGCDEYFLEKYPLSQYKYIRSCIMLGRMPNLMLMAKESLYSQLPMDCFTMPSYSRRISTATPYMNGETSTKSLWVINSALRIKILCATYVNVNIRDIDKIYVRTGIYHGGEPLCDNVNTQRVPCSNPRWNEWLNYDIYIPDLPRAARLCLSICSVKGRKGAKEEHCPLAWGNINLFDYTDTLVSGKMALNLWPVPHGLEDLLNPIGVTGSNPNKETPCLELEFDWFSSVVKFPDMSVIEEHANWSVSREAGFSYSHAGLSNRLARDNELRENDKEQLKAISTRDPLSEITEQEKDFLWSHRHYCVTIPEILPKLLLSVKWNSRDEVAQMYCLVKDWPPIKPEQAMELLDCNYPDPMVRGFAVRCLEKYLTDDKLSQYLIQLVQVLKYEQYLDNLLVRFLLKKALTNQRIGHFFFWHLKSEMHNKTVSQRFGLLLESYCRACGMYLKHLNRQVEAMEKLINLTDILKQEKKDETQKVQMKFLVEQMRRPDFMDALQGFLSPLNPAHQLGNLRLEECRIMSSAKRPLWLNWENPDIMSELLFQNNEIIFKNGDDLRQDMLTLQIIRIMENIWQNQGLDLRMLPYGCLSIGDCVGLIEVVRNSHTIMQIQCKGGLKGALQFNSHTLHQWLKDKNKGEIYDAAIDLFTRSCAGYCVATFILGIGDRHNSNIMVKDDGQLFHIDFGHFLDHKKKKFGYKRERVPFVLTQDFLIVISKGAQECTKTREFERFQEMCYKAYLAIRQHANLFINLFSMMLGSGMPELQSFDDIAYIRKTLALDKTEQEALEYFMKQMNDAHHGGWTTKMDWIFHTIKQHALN
Sequence of Phosphatidylinositol 4,5-bisphosphate 3-kinase catalytic subunit beta isoform (P42338 whole entry, canonical isoform): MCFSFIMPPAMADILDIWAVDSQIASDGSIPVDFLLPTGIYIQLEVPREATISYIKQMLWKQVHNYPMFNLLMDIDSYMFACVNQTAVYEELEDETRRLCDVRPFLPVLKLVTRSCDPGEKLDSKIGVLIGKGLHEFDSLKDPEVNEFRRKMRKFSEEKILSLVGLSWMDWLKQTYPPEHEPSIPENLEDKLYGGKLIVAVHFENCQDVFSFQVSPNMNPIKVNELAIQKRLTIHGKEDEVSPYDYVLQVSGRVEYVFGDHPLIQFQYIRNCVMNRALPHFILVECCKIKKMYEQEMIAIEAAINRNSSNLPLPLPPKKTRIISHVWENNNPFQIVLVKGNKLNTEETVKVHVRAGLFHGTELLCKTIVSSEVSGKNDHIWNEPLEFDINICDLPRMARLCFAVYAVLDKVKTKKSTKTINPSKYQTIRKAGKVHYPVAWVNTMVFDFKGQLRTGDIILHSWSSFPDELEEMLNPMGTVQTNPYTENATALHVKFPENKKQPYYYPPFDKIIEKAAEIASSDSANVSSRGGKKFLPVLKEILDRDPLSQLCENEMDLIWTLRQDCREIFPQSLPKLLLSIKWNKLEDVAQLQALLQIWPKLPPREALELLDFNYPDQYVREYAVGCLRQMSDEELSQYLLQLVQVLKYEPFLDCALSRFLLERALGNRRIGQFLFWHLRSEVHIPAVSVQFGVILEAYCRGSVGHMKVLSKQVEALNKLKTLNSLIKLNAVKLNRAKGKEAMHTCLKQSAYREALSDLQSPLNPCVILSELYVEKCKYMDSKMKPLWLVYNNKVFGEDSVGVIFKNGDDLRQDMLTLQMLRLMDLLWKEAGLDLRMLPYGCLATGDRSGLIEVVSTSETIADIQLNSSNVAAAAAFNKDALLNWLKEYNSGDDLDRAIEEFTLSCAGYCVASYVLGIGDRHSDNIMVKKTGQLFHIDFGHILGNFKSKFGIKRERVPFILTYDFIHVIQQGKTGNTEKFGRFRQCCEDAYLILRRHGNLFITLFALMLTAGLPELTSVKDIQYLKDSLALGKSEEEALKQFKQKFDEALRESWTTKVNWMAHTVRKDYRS

## Cc1nc2cnc3ccc(-c4cnc5[nH]ccc5c4)cc3c2n1-c1ccc(C(C)(C)C#N)nc1
HeLa [1]
  Activity: 26.11%
[2]
  Activity: Non-Toxic
HeLa [3]
  Activity: 38.86%
HeLa [4]
  inhibition: Dde
[5]
  t1/2: 2.6 h
[6]
  IC50: 3.5 nM
HeLa [7]
  Activity: 7.4%
[8]
  Activity: Non-Toxic
[9]
  half-life: 1.16 h
[10]
  Activity: Non-Toxic
HCT-15
  IC50: 170 nM
[11]
  Tmax: 0.75 h
[12]
  Activity: Non-Toxic
[13]
  Activity: Non-Toxic
[14]
  AUC: 992 ng·h/mL
[15]
  Activity: Non-Toxic
HeLa [16]
  Activity: 4.18%
[17]
  IC50: 21.3 nM
[18]
  IC50: 4 nM
[19]
  IC50: 75 nM
SW-620 [20]
  inhibition at 1.25 µM: 100%
[21]
  Activity: Non-Toxic
HeLa [22]
  Activity: 6.23%
HeLa [23]
  viability at 0.3125 µM: 89.9%
HeLa [24]
  viability at 1.25 µM: 41.2%
HeLa [25]
  inhibition at 0.625 µM: 100%
SW-620 [26]
  Activity: Dde
